Consider 27 compounds from patent publication US6962912B2, “Substituted pyrazolo[4,3-e]diazepines, pharmaceutical compositions containing them, use as medicinal products and processes for preparing them” (Warner-Lambert LLC, priority 2000, dated 2005).

One data set has as its target PDE4. As to the kind of experiment: Inhibition of PDE4 (cytosolic enzyme preparation from U937 line), compared with rolipram. The class given is biochemical, human. The note with it: PDE4 enzyme preparation obtained from the U937 line.
A further data set has as its system production of TNFα. The data set can be described thus: in vivo TNFα model in Wistar rats (LPS-induced). To be noted: oral administration 30 min before i.p. LPS; plasma 90 min after LPS; male Wistar rats. An excerpt: TNFα is a cytokine which plays a central role in the mechanisms of inflammation. Its production can be induced by an injection of lipopolysaccharide (LPS). It has been shown that the increase in intracellular cAMP, produced in particular by PDE4 inhibitors, decreases the production of TNFα in in vitro and in vivo models. It is thus a matter here of quantifying in vivo the anti-inflammatory potential of the compounds of the invention, administered orally (p.o.) by measuring the inhibition of the production of TNFα in the plasma of rats, these rats having received an intraperitoneal (i.p.) injection of lipopolysaccharide (LPS). The treatment with the compounds of the invention or the vehicle are [sic] administered orally to male Wistar rats, 30 min before the injection of LPS. The rats are sacrificed 90 min after the stimulation with LPS, the blood is collected onto EDTA and the TNFα concentration is measured in each plasma sample. […] References • Chen, Y. L., Le Vraux, V., Giroud, J. P. and Chauvelot-Moachon L. (1994). Anti-tumor necrosis factor properties of non-peptide drugs in acute-phase responses. […] Int. J. Immunopharmacol., 16 (10), 805-816. Model of Eosinophilia in Rats

`CCC(C)c1nn(CC)c2c1N=C(c1ccccc1)CNC2=O` (racemic) [Example 68, (±)3-sec-Butyl-1-ethyl-5-phenyl-6,7-dihydro-1H-pyrazolo[4,3-e][1,4]diazepin-8-one]: at PDE4, the half-inhibitory concentration (IC50) (as a rule, the concentration that gives 50% inhibition) is 6.2 nM. In addition, the “inhibition of the production of TNFα in the plasma of rats” value (shortened to “inhibition of the production of TNFα”) with production of TNFα is given as “excellent activity”.
As to `CCC(C)c1nn(CC)c2c1N=C(c1ccncc1)CNC2=O` (racemic) [Example 69, (±)3-sec-Butyl-1-ethyl-5-pyrid-4-yl-6,7-dihydro-1H-pyrazolo[4,3-e][1,4]diazepin-8-one], the melting point (in general, the temperature of the solid-liquid transition) lay within 86 to 88.5 °C. At PDE4, this compound showed an IC50 of 13 nM. For the same compound, the “inhibition of the production of TNFα” value with production of TNFα is “excellent activity”.
The like results for `CCCn1nc(C(C)CC)c2c1C(=O)NCC(c1ccncc1)=N2` (racemic) [Example 71, (±)3-sec-Butyl-1-propyl-5-pyrid-4-yl-6,7-dihydro-1H-pyrazolo[4,3-e][1,4]diazepin-8-one] were, in that order, 110 °C, 35 nM and “excellent activity”.
As to `CCn1nc(C)c2c1C(=O)NCC(C(C)(C)C)N2` (stereo not shown) [5-tert-Butyl-1-ethyl-3-methyl-4,5,6,7-tetrahydro-1H-pyrazolo[4,3-e][1,4]diazepin-8-one], the “inhibition of the production of TNFα” value with production of TNFα is on record as “excellent activity”.
For `CCn1nc(C(C)C)c2c1C(=O)NCC(c1ccccc1)=N2` [Example 1, 1-Ethyl-3-isopropyl-5-phenyl-6,7-dihydro-1H-pyrazolo[4,3-e][1,4]diazepin-8-one], the melting point came out at 157.2 °C. Also, the IC50 against PDE4 is 4.9 nM. In addition, the “inhibition of the production of TNFα” value in the data set with production of TNFα was “excellent activity”.
Taken in the same sequence, the figures for `CCn1nc(C(C)C)c2c1C(=S)NCC(c1ccccc1)=N2` [Example 2, 1-Ethyl-3-isopropyl-5-phenyl-6,7-dihydro-1H-pyrazolo[4,3-e][1,4]diazepin-8-thione] were 164 °C, 0.98 nM and “excellent activity”.
Taken in the same sequence, the figures for `CCn1nc(C(C)C)c2c1C(=NC#N)NCC(c1ccccc1)=N2` [Example 3, 1-Ethyl-3-isopropyl-5-phenyl-6,7-dihydro-1H-pyrazolo[4,3-e][1,4]diazepin-8-ylidenecyanamide] were 222 °C, 0.12 nM and “excellent activity”.
The like results for `CCn1nc(C)c2c1C(=O)NCC(c1ccc(OC)cc1)=N2` [Example 6, 1-Ethyl-5-(4-methoxyphenyl)-3-methyl-6,7-dihydro-1H-pyrazolo[4,3-e][1,4]diazepin-8-one] were, in that order, 178 °C, 420 nM and “excellent activity”.
On to `CCn1nc(C)c2c1C(=O)NCC(c1ccc(N)cc1)=N2` [Example 12, 5-(4-Aminophenyl)-1-ethyl-3-methyl-6,7-dihydro-1H-pyrazolo-[4,3-e][1,4]diazepin-8-one], for which the melting point was 212 °C. For the same compound, the IC50 at PDE4 is 100 nM. For the same compound, the “inhibition of the production of TNFα” value in the data set on production of TNFα is reported as “excellent activity”.
Taken in the same sequence, the figures for `CCCn1nc(C)c2c1C(=O)NCC(c1ccccc1)=N2` [Example 15, 3-Methyl-5-phenyl-1-propyl-6,7-dihydro-1H-pyrazolo-[4,3-e][1,4]diazepin-8-one] were 171 °C, 520 nM and “excellent activity”.
The like results for `Cc1nn(CCO)c2c1N=C(c1ccccc1)CNC2=O` [Example 16, 1-(2-Hydroxyethyl)-3-methyl-5-phenyl-6,7-dihydro-1H-pyrazolo[4,3-e][1,4]diazepin-8-one] were, in that order, 75 °C, 420 nM and “excellent activity”.
Taken in the same sequence, the figures for `CCn1nc(C)c2c1C(=S)NCC(c1ccccc1)=N2` [Example 17, 1-Ethyl-3-methyl-5-phenyl-6,7-dihydro-1H-pyrazolo[4,3-e][1,4]diazepin-8-thione] were 203.5 °C, 5.9 nM and “excellent activity”.
With `CCn1nc(C(C)(C)C)c2c1C(=O)NCC(c1ccccc1)=N2` [Example 21, 3-tert-Butyl-1-ethyl-5-phenyl-6,7-dihydro-1H-pyrazolo[4,3-e][1,4]diazepin-8-one], the melting point came out at 160 °C. Further, the IC50 against PDE4 came out at 2.6 nM. Further, the “inhibition of the production of TNFα” value in the data set with production of TNFα is “excellent activity”.
Compound `CCn1nc(C(C)C)c2c1C(=O)NCC(C(C)(C)C)=N2` [Example 35, 5-tert-Butyl-1-ethyl-3-isopropyl-6,7-dihydro-1H-pyrazolo[4,3-e][1,4]diazepin-8-one] showed an IC50 at PDE4 of 0.7 nM. In addition, the “inhibition of the production of TNFα” value in the data set on production of TNFα is given as “excellent activity”.
`CCn1nc(C(C)C)c2c1C(=O)NCC(c1ccc(C)cc1)=N2` [Example 36, 1-Ethyl-3-isopropyl-5-p-tolyl-6,7-dihydro-1H-pyrazolo[4,3-e][1,4]diazepin-8-one]: the IC50 against PDE4 came out at 0.39 nM. In addition, the “inhibition of the production of TNFα” value in the data set with production of TNFα is “excellent activity”.
The like results for `CCn1nc(C(C)C)c2c1C(=O)NCC(c1ccc(C#N)cc1)=N2` [Example 37, 4-(1-Ethyl-3-isopropyl-8-oxo-1,6,7,8-tetrahydro-pyrazolo[4,3-e][1,4]diazepin-5-yl)benzonitrile] were, in that order, 0.97 nM and “excellent activity”.
The compound `CCn1nc(C(C)C)c2c1C(=O)NCC(c1ccc(OC)cc1OC)=N2` [Example 39, 5-(2,4-Dimethoxyphenyl)-1-ethyl-3-isopropyl-6,7-dihydro-1H-pyrazolo[4,3-e][1,4]diazepin-8-one] returned an IC50 on PDE4 of 9.1 nM. Further, the “inhibition of the production of TNFα” value in the data set on production of TNFα is recorded as “excellent activity”.
At PDE4, `CCCn1nc(C(C)C)c2c1C(=O)NCC(C(C)(C)C)=N2` [Example 40, 5-tert-Butyl-3-isopropyl-1-propyl-6,7-dihydro-1H-pyrazolo[4,3-e][1,4]diazepin-8-one] gave an IC50 of 8.2 nM. Besides, in the data set on production of TNFα, the “inhibition of the production of TNFα” value is on record as “excellent activity”.
Taken in the same sequence, the figures for `CCCn1nc(C(C)C)c2c1C(=O)NCC(c1ccc(C)cc1)=N2` [Example 41, 3-Isopropyl-1-propyl-5-p-tolyl-6,7-dihydro-1H-pyrazolo[4,3-e][1,4]diazepin-8-one] were 11 nM and “excellent activity”.
On PDE4, `CCCn1nc(C(C)C)c2c1C(=O)NCC(c1ccc(C#N)cc1)=N2` [Example 42, 4-(3-Isopropyl-8-oxo-1-propyl-1,6,7,8-tetrahydro-pyrazolo[4,3-e][1,4]diazepin-5-yl)benzonitrile] showed an IC50 of 10 nM. Moreover, the “inhibition of the production of TNFα” value with production of TNFα was “excellent activity”.
Taken in the same sequence, the figures for `CCn1nc(C(C)(C)C)c2c1C(=O)NCC(c1ccc(C)cc1)=N2` [Example 45, 3-tert-Butyl-1-ethyl-5-p-tolyl-6,7-dihydro-1H-pyrazolo[4,3-e][1,4]diazepin-8-one] were 2.6 nM and “excellent activity”.
Taken in the same sequence, the figures for `CCn1nc(C(C)(C)C)c2c1C(=O)NCC(c1ccc(C#N)cc1)=N2` [Example 46, 4-(3-tert-Butyl-1-ethyl-8-oxo-1,6,7,8-tetrahydro-pyrazolo[4,3-e][1,4]diazepin-5-yl)benzonitrile] were 0.84 nM and “excellent activity”.
The like results for `CCCn1nc(C2CCCCC2)c2c1C(=O)NCC(c1ccncc1)=N2` [Example 75, 3-Cyclohexyl-1-propyl-5-pyrid-4-yl-6,7-dihydro-1H-pyrazolo-[4,3-e][1,4]diazepin-8-one] were, in that order, 4.9 nM and “excellent activity”.
Regarding `CCn1nc(C)c2c1C(=O)NCC(c1ccccc1O)=N2` [Example 93, 1-Ethyl-5-(2-hydroxyphenyl)-3-methyl-6,7-dihydro-1H-pyrazolo[4,3-e][1,4]diazepin-8-one], the melting point stood at 220 °C. The IC50 on PDE4 was 7.4 nM.
In turn, `CCn1nc(C(C)C)c2c1C(=O)NCC(c1ccc(O)cc1)=N2` [Example 94, 1-Ethyl-5-(4-hydroxyphenyl)-3-isopropyl-6,7-dihydro-1H-pyrazolo[4,3-e][1,4]diazepin-8-one] came in with a melting point of 230 °C. The compound also returned an IC50 against PDE4 of 2.1 nM.
The like results for `CCCn1nc(C(C)C)c2c1C(=O)NCC(c1ccc(O)cc1)=N2` [Example 95, 5-(4-Hydroxyphenyl)-3-isopropyl-1-propyl-6,7-dihydro-1H-pyrazolo[4,3-e][1,4]diazepin-8-one] were, in that order, 230 °C and 15 nM.
Turning to `CCn1nc(C(C)(C)C)c2c1C(=O)NCC(c1ccc(O)cc1)=N2` [Example 96, 3-tert-Butyl-1-ethyl-5-(4-hydroxyphenyl)-6,7-dihydro-1H-pyrazolo[4,3-e][1,4]diazepin-8-one], the melting point was 264 °C. At PDE4, this compound yielded an IC50 of 4.9 nM.
